Data set [1] relates to eIF2α phosphorylation (ATF-4 5′UTR luciferase reporter). The data set can be described thus: surrogate eIF2α phosphorylation dual-luciferase reporter (DLR) assay. Format: cell-based. The conditions noted are these: F/R luciferase ratio normalized to DMSO wells (F/R=1); for fold induction at 1.25 µM: read-out: Fold stimulation of ATF-4 Surrogate eIF2α @ 1.25 μM; for fold induction at 5 µM: read-out: Fold stimulation of ATF-4 Surrogate eIF2α @ 5 μM. The text has this: The dual luciferase expression vector and other plasmids used in the Examples provided herein have been previously reported (see e.g., Ziegeler et al, J. Biol. Chem. 285 (2010) 15408-15419). The dual luciferase surrogate eIF2α phosphorylation assay, has also been previously reported (see e.g., Chen et al, Nat. Chem. Biol. 7 (2011) 610-616). Briefly, a dual Renilla and Firefly luciferase mammalian reporter vector that transcribes both mRNAs from the same bi-directional enhancer/promoter complex was utilized for generation of surrogate eIF2α phosphorylation assay (see e.g., Ziegeler et al, J. Biol. Chem. 285 (2010) 15408-15419). Both mRNAs contained the same 90 nucleotide plasmid derived 5′UTR. In addition, 5′UTR of the Firefly luciferase open reading frame was fused in-frame to the 267 nucleotide ATF-4 5′UTR (see e.g., Chen et al, Nat. Chem. Biol. 7 (2011) 610-616).
Cells expressing firefly and renilla luciferases were assayed with a dual glow luciferase assay kit, per manufacturer's instruction (Promega Inc., Madison, WI). The data calculations were carried out as the ratio of firefly to renilla luciferase signal (see e.g., Ziegeler et al, J. Biol. Chem. 285 (2010) 15408-15419). Dose-response curves were obtained, and triplicate data points were fitted to the logistical sigmoidal model using nonlinear least-squares regression performed in GraphPad Prism 6.
All newly synthesized N,N′-disubstituted ureas were initially evaluated by testing in the surrogate eIF2α phosphorylation dual-luciferase reporter (DLR) assay (see e.g., Chen et al, Nat. Chem. Biol. 7 (2011) 610-616; and Ziegeler et al, J. Biol. Chem. 285 (2010) 15408-15419). Briefly, this assay takes advantage of the fact that activated HRI phosphorylates eIF2α which inhibits eIF2 guanine nucleotide exchange factor eIF2B, responsible for exchanging the GDP in the eIF2·GDP complex for GTP. The reduction in the recycling of eIF2·GDP into eIF2·GTP interferes with the formation of eIF2·GTP·Met-tRNAi ternary complex. […] These include mRNA coding for activating transcription factor 4 (ATF-4) (see e.g., Aktas et al, Oncotarget, 4 (2013) 1606-1617; Aktas et al, Oncotarget, 6 (2015) 6902-6914; and Aktas et al, Proc. Natl. Acad. Sci. U.S.A. 95 (1998) 8280-8285).
In the present assay, firefly (F) luciferase mRNA was fused to the 5′UTR of ATF-4 mRNA that had multiple uORFs, while renilla (R) luciferase mRNA was fused to a 5′UTR lacking any uORFs. Agents that reduce the amount of the eIF2·GTP·Met-tRNAi ternary complex, such as N,N′-disubstituted ureas that activate HRI, increase F luciferase expression while reducing the R luciferase expression, resulting in an increased F/R luciferase ratio. The ureas of the present application were tested at 10 μM, 5 μM, 2.5 μM, and 1.25 μM concentrations in 96-well assay plates (see e.g., Chen et al, Nat. Chem. Biol. 7 (2011) 610-616; and Bai et al, ChemBioChem, 14 (2013) 1255-1262). The activity scores as the F/R ratios were calculated for every compound-treated well and normalized to F/R ratio of vehicle-treated (DMSO) wells in the same plate, arbitrarily set at 1 (F/R=1). Data obtained in the surrogate dual-luciferase eIF2α phosphorylation (DLR) assay for the series of 1-phenyl-3/4-(4-trifluorometyl) phenoxy-cycloalkyl)ureas (4-CF3-ΦcAlkΦUs) and 1-phenyl-3-(5-(4-(trifluoromethyl) phenoxy)pyrimidin-2-yl)ureas (4-CF3-ΦOPyΦUs) described herein are shown in Tables 1-2.
(In general: A reporter such as luciferase makes a cellular process visible.)

Data set [2] has as its system human melanoma CRL-2813 cells. The data set can be described thus: sulforhodamine B (SRB) cell proliferation assay. Format: cell-based. The conditions noted are these: Homo sapiens, CRL2813, 120 h, 5 days, read-out: IC50 (concentration that inhibits growth of human melanoma CRL-2813 cells by 50%). As for the experimental part:
Cells were seeded in 96-well plates and maintained for 5 days in the presence of 0.5 μM to 20 μM of individual compound, and cell proliferation was measured by the sulforhodamine B (SRB) assay according to previous reports (see e.g., Palakurthi et al, Cancer Res. 60 (2000) 2919-2925): briefly, at the end of a 5-day treatment, cells were fixed in 10% cold trichloroacetic acid. Cell number was estimated by measuring the remaining bound dye of sulforhodamine B after washing. The percentage of growth was calculated by using the equation: 100×[(T-T0)/(C-T0)], where T and C represent the absorbance in treated and control cultures at Day 5, and T0 at time zero, respectively. If T was less than T0, cell death had occurred and was calculated from 100×[(T-T0)/T0].
All 4-CF3-ΦOcAlkΦUs were tested in the sulforhodamine B (SRB) cell proliferation assay to establish the concentrations that inhibit human melanoma CRL-2813 cells growth by 50% (IC50) (see Table 1). This activity reflects a combined effect of membrane permeability and overall anti-proliferative effects that include on target and off-target effects.

Some results are limits rather than exact numbers.

`N#Cc1cc(NC(=O)N[C@H]2C[C@@H](Oc3ccc(C(F)(F)F)cc3)C2)cc(C(F)(F)F)c1` [Compound 1-IVc, 1-(3-Cyano-5-(trifluoromethyl)phenyl)-3-(cis-3-(4-(trifluoromethyl)phenoxy)cyclobutyl)urea] came in with a melting point of 194.6 to 196.1 °C. Further, in data set [1], the “Fold stimulation of ATF-4 Surrogate eIF2α @ 1.25 μM” value was 4.3 ± 0.6 fold and the fold induction at 1.25 µM is 4.3. In addition, in data set [1] (5 μM), the fold induction at 5 µM is 8.4 ± 0.5. For the same molecule, the IC50 in data set [2] was found to be 900 nM.
Regarding `N#Cc1cc(NC(=O)N[C@H]2CC[C@H](Oc3ccc(C(F)(F)F)cc3)C2)cc(C(F)(F)F)c1` [Compound 1-V, 1-(3-Cyano-5-(trifluoromethyl)phenyl)-3-((1S,3S)-3-(4-(trifluoromethyl)phenoxy)cyclopentyl)urea], the melting point lay within 144.4 to 146.2 °C. For the same molecule, in data set [1], the “Fold stimulation of ATF-4 Surrogate eIF2α @ 1.25 μM” value is recorded as 3.1 ± 0.7 fold and the fold induction at 1.25 µM came to 3.1. In data set [1] (5 μM), the “Fold stimulation of ATF-4 Surrogate eIF2α @ 5 μM” value came to 8.3 ± 2.4 fold and the fold induction at 5 µM is 8.3. In addition, the IC50 in data set [2] is 1200 nM.
Molecule `N#Cc1cc(NC(=O)Nc2ncc(Oc3ccc(C(F)(F)F)cc3)cn2)cc(C(F)(F)F)c1` [Compound 1-py, 1-(3-Cyano-5-(trifluoromethyl)phenyl)-3-(5-(4-(trifluoromethyl)phenoxy)pyrimidin-2-yl)urea] displayed a melting point of 263.5 to 265.5 °C.
For `O=C(Nc1cccc(C(F)(F)F)c1)N[C@H]1C[C@H](Oc2ccc(C(F)(F)F)cc2)C1` [Compound 2-IV, 1-(trans-3-(4-(Trifluoromethyl)phenoxy)cyclobutyl)-3-(3-(trifluoromethyl)phenyl)urea], the melting point is 171.8 to 174.6 °C. The fold induction at 1.25 µM in data set [1] came to 2.4 ± 0.6. Also, the fold induction at 5 µM in data set [1] (5 μM) was found to be 6.5 ± 1.2. Also, in data set [2], the IC50 was 3400 ± 1000 nM.
For `O=C(Nc1cccc(C(F)(F)F)c1)N[C@H]1C[C@@H](Oc2ccc(C(F)(F)F)cc2)C1` [Compound 2-IVc, 1-(cis-3-(4-(Trifluoromethyl)phenoxy)cyclobutyl)-3-(3-(trifluoromethyl)phenyl)urea] the same measures were 166.6 to 168.5 °C, 1.2 ± 0.3, 6.2 ± 1.2 and 2600 ± 400 nM.
For `O=C(Nc1cccc(C(F)(F)F)c1)N[C@H]1CC[C@H](Oc2ccc(C(F)(F)F)cc2)C1` [Compound 2-V] the same measures were 123.5 to 125.3 °C, 1.2 ± 0.4, 7 ± 0.9 and 2500 ± 500 nM.
`O=C(Nc1cccc(C(F)(F)F)c1)Nc1ncc(Oc2ccc(C(F)(F)F)cc2)cn1` [Compound 2-py, 1-(5-(4-(Trifluoromethyl)phenoxy)pyrimidin-2-yl)-3-(3-(trifluoromethyl)phenyl)urea]: the melting point lay within 232.5 to 234.8 °C.
In turn, `N#Cc1cccc(NC(=O)N[C@H]2C[C@H](Oc3ccc(C(F)(F)F)cc3)C2)c1` [Compound 3-IV, 1-(3-Cyanophenyl)-3-(trans-3-(4-(trifluoromethyl)phenoxy)cyclobutyl)urea] had a melting point of 181.1 to 182.3 °C. Besides, in data set [1], the “Fold stimulation of ATF-4 Surrogate eIF2α @ 1.25 μM” value is 1.6 ± 0.2 fold and the fold induction at 1.25 µM amounted to 1.6. Moreover, the fold induction at 5 µM in data set [1] (5 μM) came out at 3.5 ± 0.4. The IC50 in data set [2] worked out at 4900 nM.
On to `N#Cc1cccc(NC(=O)N[C@H]2C[C@@H](Oc3ccc(C(F)(F)F)cc3)C2)c1` [Compound 3-IVc, 1-(3-Cyanophenyl)-3-(cis-3-(4-(trifluoromethyl)phenoxy)cyclobutyl)urea], for which the melting point lay in the range of 203.7 to 206.8 °C. Moreover, in data set [1], the “Fold stimulation of ATF-4 Surrogate eIF2α @ 1.25 μM” value is 1.1 ± 0.2 fold and the fold induction at 1.25 µM stood at 1.1. Also, the fold induction at 5 µM in data set [1] (5 μM) was 0.9 ± 0.1. Moreover, in data set [2], the IC50 was over 10000 nM.
Regarding `N#Cc1cccc(NC(=O)N[C@H]2CC[C@H](Oc3ccc(C(F)(F)F)cc3)C2)c1` [Compound 3-V], the melting point is 160.2 to 162.1 °C. Besides, the fold induction at 1.25 µM in data set [1] stood at 0.8 ± 0.2. For the same molecule, in data set [1] (5 μM), the fold induction at 5 µM was 1.6 ± 0.2. For the same molecule, the IC50 in data set [2] amounted to 6500 ± 2300 nM.
Take `N#Cc1cccc(NC(=O)Nc2ncc(Oc3ccc(C(F)(F)F)cc3)cn2)c1` [Compound 3-py, 1-(3-Cyanophenyl)-3-(5-(4-(trifluoromethyl)phenoxy)pyrimidin-2-yl) urea]: the melting point lay within 260.2 to 261.5 °C.
The molecule `N#Cc1cc(F)cc(NC(=O)N[C@H]2C[C@H](Oc3ccc(C(F)(F)F)cc3)C2)c1` [Compound 4-IV, 1-(3-Cyano-5-fluorophenyl)-3-(trans-3-(4-(trifluoromethyl)phenoxy)cyclobutyl)urea] registered a melting point of 182.8 to 185 °C. Moreover, the fold induction at 1.25 µM in data set [1] is 2 ± 0.4. Moreover, in data set [1] (5 μM), the fold induction at 5 µM turned out to be 5.3 ± 0.6. Moreover, the IC50 in data set [2] is 2800 ± 1300 nM.
For `N#Cc1cc(F)cc(NC(=O)N[C@H]2CC[C@H](Oc3ccc(C(F)(F)F)cc3)C2)c1` [Compound 4-V] the same measures were 176.2 to 177.8 °C, 2.4 ± 0.3, 8 ± 2 and 1900 ± 1300 nM.
Turning to `N#Cc1cc(F)cc(NC(=O)Nc2ncc(Oc3ccc(C(F)(F)F)cc3)cn2)c1` [Compound 4-py, 1-(3-Cyano-5-fluorophenyl)-3-(5-(4-(trifluoromethyl)phenoxy)pyrimidin-2-yl)urea], the melting point lay within 267.5 to 270 °C.
With `Cc1ccc(F)cc1NC(=O)N[C@H]1C[C@H](Oc2ccc(C(F)(F)F)cc2)C1` [Compound 7-IV, 1-(5-Fluoro-2-methylphenyl)-3-(trans-3-(4-(trifluoromethyl)phenoxy)cyclobutyl)urea], the melting point lay within 204.2 to 206 °C. Also, the fold induction at 1.25 µM in data set [1] came to 0.7 ± 0.2. Moreover, the fold induction at 5 µM in data set [1] (5 μM) was determined as 1.4 ± 0.1. Moreover, the IC50 in data set [2] was over 10000 nM.
`Cc1ccc(F)cc1NC(=O)Nc1ncc(Oc2ccc(C(F)(F)F)cc2)cn1` [Compound 7-py, 1-(5-Fluoro-2-methylphenyl)-3-(5-(4-(trifluoromethyl)phenoxy)pyrimidin-2-yl)urea] registered a melting point of 224.2 to 226.5 °C.
Still for that read-out and setting: under `O=C(Nc1ccc(F)c(F)c1)Nc1ncc(Oc2ccc(C(F)(F)F)cc2)cn1` [Compound 10-py, 1-(3,4-Difluorophenyl)-3-(5-(4-(trifluoromethyl)phenoxy)pyrimidin-2-yl) urea] stands 224.8 to 226.2 °C.

By melting point is commonly meant the temperature of the solid-liquid transition.

For the origin of these results see patent US20240076272A1, “Activators of Heme Regulated Inhibitor Kinase (HRI)” (The Brigham and Women`s Hospital, Inc., priority 2019, published 2024).
